Results published in US10322995B2, “Substituted cyano cycloalkyl penta-2,4-dienes, cyano cycloalkyl pent-2-en-4-ynes, cyano heterocyclyl penta-2,4-dienes and cyano heterocyclyl pent-2-en-4-ynes as active substances against abiotic plant stress” (BAYER CROPSCIENCE AKTIENGESELLSCHAFT, priority 2014, dated 2019).

Molecular target: T1, phosphatase ABI1 via the co-regulator RCAR11/PYR1 (Arabidopsis thaliana, UniProt O49686+P49597)
T1 sequence (O49686 1-191): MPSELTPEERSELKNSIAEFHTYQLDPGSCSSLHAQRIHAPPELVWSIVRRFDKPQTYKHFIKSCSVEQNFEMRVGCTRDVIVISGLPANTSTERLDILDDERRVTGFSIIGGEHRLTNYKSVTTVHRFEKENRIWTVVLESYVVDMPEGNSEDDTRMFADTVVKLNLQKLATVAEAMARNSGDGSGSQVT
T1 sequence (P49597 1-434): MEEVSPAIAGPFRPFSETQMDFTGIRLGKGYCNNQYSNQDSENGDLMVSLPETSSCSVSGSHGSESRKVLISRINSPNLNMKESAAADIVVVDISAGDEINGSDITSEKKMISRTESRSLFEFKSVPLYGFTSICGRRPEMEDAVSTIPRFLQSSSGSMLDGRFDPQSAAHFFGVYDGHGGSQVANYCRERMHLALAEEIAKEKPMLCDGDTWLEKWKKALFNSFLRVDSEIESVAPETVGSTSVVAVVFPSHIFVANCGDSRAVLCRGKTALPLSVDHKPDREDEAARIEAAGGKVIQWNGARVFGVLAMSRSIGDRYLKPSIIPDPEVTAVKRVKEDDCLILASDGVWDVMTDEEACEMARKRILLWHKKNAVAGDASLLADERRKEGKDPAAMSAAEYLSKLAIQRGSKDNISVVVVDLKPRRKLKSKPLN
Experiment: In vitro assay: inhibition of the phosphatase ABI1 via the co-regulator RCAR11/PYR1, MUP dephosphorylation, fluorescence
Format: biochemical
Set-up: inhibition: dose or concentration left out as unconfirmed
Details: MUP dephosphorylation, fluorescence 460 nm; for ABI1 inhibition: concentration of 5 mM of the substance in a solution of DMSO and water
Outline: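 ABI1 (0.15 μg/well) with RCAR11 (0.30 μg/well) in Tris-HCl pH 8, NaCl, MnCl2, DTT and Tween20, with MUP as substrate; 20 min at 35 °C, fluorescence at ex 340/em 460 nm. Compounds were in DMSO/water, esterase-pretreated if needed, with DMSO 0.5% and ABA 5 μM as controls. Inhibition was binned into ≥90, 70–90, 50–70 and 30–50% classes.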

Row | Structure (SMILES) | ABI1 inhibition | inhibition (read-out: ABI1 inhibition) [%]
1 | CCCOC(=O)/C=C(\C#CC(O)(C(C)C)C1(C#N)CC1)CC (stereo not drawn) [I.1-605] | ++++ (inhibition≥90%) | –
2 | CC/C(C#CC(O)(C1CCC1)C1(C#N)CC1)=C/C(=O)OC (stereo not drawn) [I.1-648] | ++++ (inhibition≥90%) | –
3 | CCOC(=O)/C=C(\C#CC(O)(C(C)C)C1(C#N)CC1)C1CC1 (stereo not drawn) [I.1-124, Ethyl (2Z)-6-(1-cyanocyclopropyl)-3-cyclopropyl-6-hydroxy-7-methyloct-2-en-4-ynoate] | – | > 90
4 | CC/C(C#CC(O)(c1ccccc1)C1(C#N)CC1)=C/C(=O)OC (stereo not drawn) [I.1-202] | ++++ (inhibition≥90%) | –
5 | CCCOC(=O)/C=C(\C#CC(O)(c1ccccc1)C1(C#N)CC1)CC (stereo not drawn) [I.1-609] | ++++ (inhibition≥90%) | –
6 | CCOC(=O)/C=C(\C#CC(O)(C(C)C)C1(C#N)CC1)CC (stereo not drawn) [I.1-103] | ++++ (inhibition≥90%) | –
7 | CCOC(=O)/C=C(/C)C#CC(O)(C(C)C)C1(C#N)CC1 (stereo not drawn) [I.1-136] | +++ (90%>inhibition≥70%) | –
8 | CCC(C=CC(O)(c1ccccc1)C1(C#N)CC1)=CC(=O)O (racemic) [I.2-201] | ++++ (inhibition≥90%) | –
9 | COC(=O)/C=C(/C)C#CC(O)(C(C)C)C1(C#N)CC1 (stereo not drawn) [I.1-135] | ++++ (inhibition≥90%) | –
